Measurements taken from article PMC12040169 (PLOS Biology, 2025).

Test: in vitro
Details: human, hela cells, % viability

First: COc1ccc(Br)cc1S(=O)(=O)NCCCN1CCOCC1 [CBK264050]
Second: CCCS(=O)(=O)N1CCN(Cc2cc(Br)ccc2O)CC1 [CBK264165G]
The viability at 28.5 h, 10 µM of the first is higher: 103% for the first, 102% for the second.

First: CC(C)(C)c1cc(C(=O)O)c(CN2CCOCC2)o1 [CBK264052]
Second: COc1cc(/C=C/C(=O)O)cc(S(=O)(=O)N2CCOCC2)c1OC [CBK264078]
The viability at 28.5 h, 10 µM of the first is lower: 88.7% for the first, 117% for the second.

Going from `Cc1ccccc1C(=O)Nc1cccc(-c2nnc(SCC(=O)c3ccc(Cl)cc3)n2C)c1` [CBK264053] to `Cc1cccc2c(C(=O)OCC(=O)c3ccc([N+](=O)[O-])cc3)cc(-c3ccc(Cl)cc3)nc12` [CBK264088], the viability at 28.5 h, 10 µM rises from 89.3% to 94.5%.

Compared with `OC(Cn1nnc2ccccc21)Cn1c(-c2ccccc2)c(-c2ccccc2)c2ccc3ccccc3c21` (stereo not drawn) [CBK264054G], `N=C1/C(=C/c2cn(Cc3ccccc3)c3ccccc23)C(=O)N=C2SC(COc3ccccc3)=NN12` [CBK264150] is higher in viability at 28.5 h, 10 µM: 92.9% for the first, 114% for the second.

Compared with `COc1cc2c(cc1NC(=O)C(C)Oc1ccccc1)oc1ccccc12` (stereo not drawn) [CBK264061], `CC(Oc1ccccc1)C(=O)Nc1cccc(C#N)c1` (stereo not drawn) [CBK264062] is lower in viability at 28.5 h, 10 µM: 91.3% for the first, 91% for the second.

First: O=C(CSc1nc2sc3c(c2c(=O)[nH]1)CCCC3)NCCN1CCOCC1 [CBK264064]
Second: NC(=O)c1c(NC(=O)C2CC(=O)OC23CCCCC3)sc2c1CCCCC2 (stereo not drawn) [CBK264189]
The viability at 28.5 h, 10 µM of the first is higher: 111% for the first, 102% for the second.

Going from `Cc1ccc(C(=O)C(C)OC(=O)c2cc(-c3ccccc3)nc3ccccc23)cc1` (stereo not drawn) [CBK264067] to `COc1ccc(C(=O)C(OC(=O)c2cc(O)nc3ccccc23)c2ccccc2)cc1` (stereo not drawn) [CBK264083], the viability at 28.5 h, 10 µM falls from 99.8% to 97.1%.

Going from `COc1ccc(S(=O)(=O)Nc2cccc(C(=O)O)c2)cc1C(=O)O` [CBK264069] to `COc1ccc(S(=O)(=O)Nc2ccccc2C(=O)O)cc1C(=O)O` [CBK264084], the viability at 28.5 h, 10 µM rises from 86.8% to 99.9%.

First: COc1ccc(S(=O)(=O)NCc2ccc3c(c2)OCO3)cc1C(=O)O [CBK264070]
Second: O=C1c2ccccc2C(=O)N1Cc1ccc(S(=O)(=O)NCc2ccc3c(c2)OCO3)cc1 [CBK264180]
The viability at 28.5 h, 10 µM of the first is lower: 97.6% for the first, 98.3% for the second.

Compared with `O=C(O)CCc1nc2ccccc2s1` [CBK264071], `CC(CC(=O)O)n1nnc2ccccc21` (stereo not drawn) [CBK264139] is lower in viability at 28.5 h, 10 µM: 115% for the first, 113% for the second.

Compared with `COc1cc(NC(=O)c2ccc3c(c2)C(=O)N(c2c(C)cc(C)cc2C)C3=O)c(C(=O)O)cc1OC` [CBK264074], `Cc1ccccc1N1C(=O)c2ccc(C(=O)OCC(=O)c3ccc(Cl)c([N+](=O)[O-])c3)cc2C1=O` [CBK264108] is higher in viability at 28.5 h, 10 µM: 91.1% for the first, 91.3% for the second.

Going from `COc1ccc(NC2c3cccc4cccc(c34)C2NS(=O)(=O)c2ccccc2)cc1` (stereo not drawn) [CBK264075] to `CC(=O)Nc1ccc(S(=O)(=O)N2CCN(C(=O)COc3ccc4ccccc4c3)CC2)cc1` [CBK264164], the viability at 28.5 h, 10 µM rises from 97.4% to 103%.

Going from `CC1=C(C(=O)OCC(=O)c2ccc(C)cc2)C2C=C(Br)C=CC2N=C1c1ccc(C)cc1` (stereo not drawn) [CBK264079] to `Cc1ccc(C(=O)COC(=O)c2cccc(C)c2O)cc1[N+](=O)[O-]` [CBK264081], the viability at 28.5 h, 10 µM falls from 94% to 90.5%.

Compared with `O=C(O)CNC(=O)CN1C(=O)c2ccc(C(=O)O)cc2C1=O` [CBK264080], `CC(=O)NCCNc1ccc(C(=O)O)cc1[N+](=O)[O-]` [CBK264184] is lower in viability at 28.5 h, 10 µM: 90.8% for the first, 87.8% for the second.

Compared with `COc1cccc(NC(=O)CN2CCN(c3nc4ccc([N+](=O)[O-])cc4s3)CC2)c1` [CBK264089], `COc1cccc(CN2CCN(S(=O)(=O)c3ccccc3[N+](=O)[O-])CC2)c1OC` [CBK264162] is lower in viability at 28.5 h, 10 µM: 93.7% for the first, 87.4% for the second.

Compared with `N#Cc1cc(Nc2ccc(Cc3ccncc3)cc2)c([N+](=O)[O-])cc1C#N` [CBK264090], `O=C(Nc1cc(-c2nc3ncccc3o2)ccc1Cl)c1ccc(-c2ccccc2[N+](=O)[O-])o1` [CBK264097] is lower in viability at 28.5 h, 10 µM: 93.9% for the first, 89% for the second.

First: Cc1noc(NS(=O)(=O)c2ccc(NC(=O)CCN3C(=O)c4ccccc4C3=O)cc2)c1C [CBK264091]
Second: CC(=O)Nc1ccc(S(=O)(=O)/N=C(/Nc2nc(C)cc(C)n2)Nc2ccccc2C)cc1 [CBK264101]
The viability at 28.5 h, 10 µM of the first is higher: 96.1% for the first, 95.9% for the second.

Going from `CS(=O)(=O)N(Cc1ccc(Cl)cc1)c1ccc(C(=O)Nc2ccccc2C(=O)O)cc1` [CBK264093] to `CS(=O)(=O)N(Cc1ccccc1)c1ccc(C(=O)Nc2ccccc2C(=O)O)cc1` [CBK264117], the viability at 28.5 h, 10 µM rises from 105% to 108%.

Going from `Cc1ccc(S(=O)(=O)N(CC(=O)Nc2cccnc2)c2cccc(Br)c2)cc1` [CBK264094] to `Cc1ccc(S(=O)(=O)N(CC(=O)Nc2cccnc2)c2cc(C)ccc2C)cc1` [CBK264115], the viability at 28.5 h, 10 µM falls from 62.8% to 61.7%.

First: O=C(Nc1cccnc1)c1ccc(CN2CCC(Cc3ccccc3)CC2)cc1 [CBK264095]
Second: CS(=O)(=O)N(Cc1ccccc1)c1ccc(C(=O)N2CCN(Cc3ccccc3)CC2)cc1 [CBK264134]
The viability at 28.5 h, 10 µM of the first is lower: 94.9% for the first, 114% for the second.

Going from `Cc1ccc(C(=O)COC(=O)CCN2C(=O)C3C4CCC(C4)C3C2=O)cc1[N+](=O)[O-]` (stereo not drawn) [CBK264096] to `O=C(CCN1C(=O)C2C3CCC(C3)C2C1=O)OCC(=O)c1ccc(Cl)c([N+](=O)[O-])c1` (stereo not drawn) [CBK264124], the viability at 28.5 h, 10 µM rises from 91.5% to 95.2%.

Compared with `COc1ccc(NC(=O)C(OC)c2ccccc2)cc1Cl` (stereo not drawn) [CBK264098], `COc1ccc(Br)cc1C(=O)Nc1cc(-c2nc3ccccc3[nH]2)ccc1Cl` [CBK264112] is lower in viability at 28.5 h, 10 µM: 95.2% for the first, 93.6% for the second.

Compared with `O=C(Cn1c(NCCCO)nc2ccccc21)c1ccco1` [CBK264099B], `O=C(Cn1c(NCCO)nc2ccccc21)c1ccco1` [CBK264127B] is higher in viability at 28.5 h, 10 µM: 94.7% for the first, 96.3% for the second.

Compared with `COc1ccccc1NC(=O)c1c(NC(=O)Cc2ccccc2)sc2c1CCC(C(C)(C)C)C2` (stereo not drawn) [CBK264102], `COc1ccccc1NC(=O)c1c(NC(=O)c2cccs2)sc2c1CCC(C(C)(C)C)C2` (stereo not drawn) [CBK264123] is higher in viability at 28.5 h, 10 µM: 94.1% for the first, 100% for the second.

Compared with `Cc1ccc(C(=O)NCCNC(=O)CN2CCCC2)cc1` [CBK264103], `O=C(CN1CCCCC1)Nc1ccc(NC(=O)CN2CCCCC2)c(Cl)c1` [CBK264173] is higher in viability at 28.5 h, 10 µM: 92.5% for the first, 111% for the second.

Going from `O=C(Nc1cc(-c2nc3ncccc3o2)ccc1Cl)c1ccc2c(c1)OCCO2` [CBK264105] to `COc1ccc(-n2nc3cc(C)c(NC(=S)NC(=O)c4oc5ccccc5c4C)cc3n2)cc1` [CBK264188], the viability at 28.5 h, 10 µM rises from 95% to 103%.

Compared with `Cc1cccc(OCC(=O)Nc2ccc(S(=O)(=O)N3CCOCC3)cc2)c1` [CBK264110], `Cc1ccc(OCC(=O)N2CCN(S(=O)(=O)c3ccc4ccccc4c3)CC2)cc1` [CBK264200] is higher in viability at 28.5 h, 10 µM: 94.6% for the first, 115% for the second.

Going from `Cc1ccc(NC(=O)CSc2nnc(COc3ccc(Cl)cc3Cl)o2)cc1Cl` [CBK264113] to `COc1ccc(OC)c(-c2nc(Nc3ccc(Cl)cc3Cl)sc2CC(=O)O)c1` [CBK264175], the viability at 28.5 h, 10 µM rises from 90.9% to 103%.

Going from `O=C(CSCc1cccc(Cl)c1)Nc1cccnc1` [CBK264114] to `Cc1ccc(S(=O)(=O)NCCSCc2cccc(Cl)c2)cc1[N+](=O)[O-]` [CBK264116], the viability at 28.5 h, 10 µM falls from 95.9% to 93.4%.

Going from `c1csc(-c2nc3[nH]c4ccccc4n3n2)c1` [CBK264118] to `Nc1ncnc2[nH]c(SCc3nc4ccccc4n3Cc3ccccc3)nc12` [CBK264148], the viability at 28.5 h, 10 µM rises from 102% to 103%.

First: O=C(CCSc1ccccc1)Nc1ccccc1C(=O)O [CBK264119]
Second: O=C(O)c1ccccc1OCCCCOc1cccc2cccnc12 [CBK264136]
The viability at 28.5 h, 10 µM of the first is higher: 92.1% for the first, 87.2% for the second.

Compared with `CN1CCN(C(=O)CN(c2cccc([N+](=O)[O-])c2)S(=O)(=O)c2ccccc2)CC1` [CBK264121], `COc1ccc(OC)c(N(CC(=O)N2CCN(C)CC2)S(=O)(=O)c2ccccc2)c1` [CBK264131] is higher in viability at 28.5 h, 10 µM: 87.6% for the first, 98.8% for the second.

Going from `CC(C)(C)C1CCc2c(sc(NC(=O)CCC(=O)O)c2C(=O)Nc2ccccc2C(F)(F)F)C1` (stereo not drawn) [CBK264143] to `CCOC(=O)C1CCCN(CCC(=O)Nc2cccc(C)c2)C1` (stereo not drawn) [CBK264158C], the viability at 28.5 h, 10 µM rises from 100% to 107%.

First: Cc1cc2c(cc1C)N(C(=O)CSc1nc3ccccc3[nH]1)C(C)(C)CC2C (stereo not drawn) [CBK264144]
Second: CCOc1ccc(Nc2nc(-c3ccc(C)cc3C)c(CC(=O)O)s2)cc1 [CBK264187]
The viability at 28.5 h, 10 µM of the first is higher: 98.7% for the first, 62.5% for the second.

Compared with `NC(=O)CN(Cc1ccc(Cl)cc1)S(=O)(=O)c1ccccc1` [CBK264149], `CC(=O)Nc1ccc(S(=O)(=O)N2CCN(S(=O)(=O)c3ccccc3)CC2)cc1` [CBK264163] is lower in viability at 28.5 h, 10 µM: 99.5% for the first, 94% for the second.

First: c1ccc2c(OCc3nc4c5c6c(sc5ncn4n3)CCCCC6)cccc2c1 [CBK264151]
Second: CCOc1ccc(CN2CCN(CCCc3ccccc3)CC2)cc1 [CBK264153G]
The viability at 28.5 h, 10 µM of the first is higher: 99.6% for the first, 92.7% for the second.

Going from `COc1ccc2[nH]c(NCCCO)nc2c1` [CBK264155] to `CN(C)CCCNC(=S)Nc1ccc(Cl)cc1Cl` [CBK264183], the viability at 28.5 h, 10 µM rises from 91.2% to 92.5%.

Compared with `Cc1ccc(NC(=O)C(=O)NCCCn2ccnc2)cc1C` [CBK264157], `CCNCCNc1ccc([N+](=O)[O-])cc1` [CBK264179C] is lower in viability at 28.5 h, 10 µM: 98% for the first, 94.1% for the second.

First: Cc1cc(C=O)c(C)n1-c1ccc(Oc2ccc([N+](=O)[O-])cn2)cc1 [CBK264167]
Second: Cc1ccc(S(=O)(=O)Nc2ccccc2CNc2ccccn2)cc1 [CBK264198]
The viability at 28.5 h, 10 µM of the first is higher: 99.9% for the first, 91.9% for the second.

First: O=[N+]([O-])c1ccccc1S(=O)(=O)N1CCN(Cc2cccnc2)CC1 [CBK264168G]
Second: O=[N+]([O-])c1ccccc1S(=O)(=O)N1CCN(C2CCCCCC2)CC1 [CBK264171G]
The viability at 28.5 h, 10 µM of the first is lower: 68.3% for the first, 95.4% for the second.

`COc1ccc(C)cc1NC(=O)CCN1CCN(CCO)CC1` [CBK264199] gave a viability at 28.5 h, 10 µM of 97.4%.

Same assay, conditions: human, hela cells, % viability, bulk resorufin, single well

Going from `O=C1NC(=S)NC(=O)C1=Cc1ccc(OCc2ccccc2)c(C(=O)O)c1` [CBK264159] to `O=C1NC(=O)C(=Cc2cc(Br)ccc2OCc2cccc(F)c2)C(=O)N1` [CBK264160], the viability at 28.5 h, 10 µM falls from 117% to 104%.

With `COc1cc(/C=C2\C(=O)NC(=O)N(c3cc(C)ccc3C)C2=O)ccc1O` [CBK264161] the viability at 28.5 h, 10 µM was 91%.
